From patent US12121525B2, “Methods for treating GI syndrome and graft versus host disease” (Sloan Kettering Institute for Cancer Research, priority 2007, dated 2024)

Tests used:
Jurkat cells [1] = assay: Ceramide generation in Jurkat cells (diacylglycerol kinase assay); format: cell-based, human; settings: 50 mM imipramine 30 min; 2 minutes post UV-C or Fas stimulation
Procedure: (§1) Others have shown that ceramide is required for Fas-induced apoptosis in some cell types. We looked at the requirement for UV-C-induced ceramide generation in initiating the apoptotic response. By UV-C is meant ultraviolet radiation in the 100-280 nm wavelength range. In these studies imipramine was used to inhibit ASMase-activity. Pre-treatment of Jurkat cells with […] imipramine for 30 min decreased baseline ASMase activity, abrogated UV-C and Fas-induced ASMase activation at 1 min post stimulation and ceramide generation at 2 minutes, and attenuated apoptosis at 4 hours post-stimulation. […] Grassme et al., J Biol Chem. 2001, 276:20589, incorporated herein by reference.
Jurkat cells, stimulated with UV-C or CH-11, were incubated for the indicated times at 37° C. Stimulation was terminated by the addition of 2 ml of chloroform:methanol:HCl (100:100:1,v/v/v), and ceramide was quantified by the diacyglycerol kinase assay, as described^97.

Jurkat cells [2] = assay: UV-C- and anti-Fas-induced apoptosis in Jurkat cells; format: cell-based, human; settings: 50 mM imipramine 30 min; 4 hours post UV-C or Fas stimulation
Procedure: as §1
H. Grassme, H. Schwarz, and E. Gulbins, Biochem Biophys Res Commun 284 (4), 1016 (2001), incorporated herein by reference. […] Importantly, we also observed that anti-ceramide and nystatin pretreatment yielded an approximate 1 log increase in clonogenic cell survival compared to vehicle controls after 5-50 J/m^2 UV-C or anti-Fas stimulation. […]
Apoptosis was assessed in vitro by two different techniques. […] Morphologic changes of nuclear apoptosis including chromatin condensation, segmentation and compaction along the periphery of the nucleus or the appearance of apoptotic bodies were quantified using an Axiovert S-100 Zeiss fluorescence microscope as previously described ^33. […]

ASMase = molecular target: T1, ASMase (Homo sapiens, UniProt P17405); assay: ASMase activity assay in Jurkat cells stimulated with UV-C or anti-Fas; format: cell-based
T1 construct: Jurkat cells were lysed in PBS containing 0.2% Triton X-100; endogenous in cells; host or cells: Jurkat T lymphocytes (clone E6-1, ATCC)
T1 sequence (P17405 47-631): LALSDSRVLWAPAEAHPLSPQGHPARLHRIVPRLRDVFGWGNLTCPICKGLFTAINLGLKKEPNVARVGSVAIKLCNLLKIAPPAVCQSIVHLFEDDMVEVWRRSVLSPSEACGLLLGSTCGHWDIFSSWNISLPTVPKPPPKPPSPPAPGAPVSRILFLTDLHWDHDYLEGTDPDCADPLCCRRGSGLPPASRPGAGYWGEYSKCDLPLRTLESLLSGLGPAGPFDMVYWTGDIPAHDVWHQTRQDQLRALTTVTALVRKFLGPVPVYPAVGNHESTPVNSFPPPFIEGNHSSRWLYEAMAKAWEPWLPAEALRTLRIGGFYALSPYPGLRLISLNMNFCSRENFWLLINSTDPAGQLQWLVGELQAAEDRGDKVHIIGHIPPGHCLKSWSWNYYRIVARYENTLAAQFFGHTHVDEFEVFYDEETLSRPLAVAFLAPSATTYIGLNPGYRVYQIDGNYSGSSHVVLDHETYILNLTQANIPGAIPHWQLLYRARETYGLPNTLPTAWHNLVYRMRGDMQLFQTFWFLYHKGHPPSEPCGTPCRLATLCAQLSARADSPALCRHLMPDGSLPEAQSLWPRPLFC
Procedure: as §1, with “reference. […]” for “reference.”
ASMase activity was measured using a fluorescence-based, high-performance liquid chromatographic (HPLC) assay^98. […] ASMase activity was measured by incubating an equal volume of lysate in assay buffer [500 μM BODIPY-C12 sphingomyelin (Molecular Probes, Eugene OR), 0.1 mM ZnCl2, 0.1 M sodium acetate pH 5.0 and 0.6% Triton X-100] for 60 min at 37° C. […] Fluorescence was quantified using a Waters 474 (Waters Corp.) fluorescence detector set to excitation and emission wavelengths of 505 and 540 nm, respectively. The amount of product generated was calculated using a regression equation derived from a standard curve established for known amounts of BODIPY-C12 ceramide standard. […]

UV-C and Fas-induced ASMase activation (ASMase; 50 mM imipramine 30 min, 1 min post stimulation): abrogated | baseline ASMase activity (ASMase; pre-treatment with 50 mM imipramine for 30 min): decreased
SMILES: CN(C)CCCN1c2ccccc2CCc2ccccc21 [imipramine]
ceramide generation (Jurkat cells [1]): abrogated | apoptosis (Jurkat cells [2]): attenuated
